Test results reported in patent US20230003717A1, “USE OF SYNAPTOTAGMIN-7 IN THE DIAGNOSIS AND TREATMENT OF BIPOLAR DISORDER” (TSINGHUA UNIVERSITY, priority 2020, published 2023).

Key:
Assay type in all cases: in vivo
Syt7 KO mice [1] = assay: forced swim test (FST), Syt7 KO mice; details: 30 mg/kg intraperitoneal, night phase and day phase
Method: (§1) The 11 genes in the DG region of the mice were knocked down using shRNA virus. The mice were subject to a forced swim test (FST), and the immobility time of the mice was analyzed. The immobility time is an indicator that reflects the feeling of despair of the mice, and a longer immobility time indicates a more serious feeling of despair. The result is shown in panel C in FIG. 1.
The behaviors of Syt7 KO mice (i.e., Syt7-knockout mice) were then examined in the FST test.
Syt7 KO mice were first treated with the atypical antipsychotic olanzapine (OLZ) and observed for the dose dependence (administered with doses of 0.2 mg/kg, 0.5 mg/kg and 1.0 mg/kg) (using ANOVA statistical method). […] Without being limited by theory, this may be associated with an antidepressant effect of olanzapine in treating BD patients.
(§2) The effect of clinical BD treatment lithium on behavioral abnormalities in Syt7 KO mice was then tested.

WT mice [2] = assay: forced swim test (FST), WT mice; details: 30 mg/kg intraperitoneal, night phase and day phase
Method: as §1, §2

Syt7 KO mice [3] = assay: learned helplessness (LH) test, Syt7 KO mice; details: 30 mg/kg intraperitoneal, night phase and day phase, vs untreated control
Method: (§3) Considering that the FST/TS tests can not represent all the characterizations of human disease, a learned helplessness (LH) test and a sucrose preference test (SPT) were conducted. LH is associated with depression. In the LH test, the escape failure number of mice is an indicator for determining the depression of animal due to external pressure. A higher escape failure number indicates a more significant depression. SPT is associated with anhedonia. The proportion of sucrose preference of the mice can serve as an indicator for determining the anhedonia severity of the mice. A higher proportion of sweet preference indicates an enhancement in hedonic feeling.
(§4) Then, the LH/SPT/LDB behavioral paradigms were adopted for detecting the effect of high-dose olanzapine treatment (1.0 mg/kg) on abnormal behaviors of the Syt7 KO mice.
as §2

WT mice [4] = assay: learned helplessness (LH) test, WT mice; details: 30 mg/kg intraperitoneal, night phase and day phase, vs untreated control
Method: as §3, §4, §2

Syt7 KO mice [5] = assay: sucrose preference test (SPT), Syt7 KO mice; details: 30 mg/kg intraperitoneal, night phase and day phase, vs untreated control
Method: as §3, §4, §2

WT mice [6] = assay: sucrose preference test (SPT), WT mice; details: 30 mg/kg intraperitoneal, night phase and day phase, vs untreated control
Method: as §3, §4, §2

Syt7 KO mice [7] = assay: light-dark box (LDB) test, Syt7 KO mice; details: 30 mg/kg intraperitoneal, night phase and day phase
Method: (§5) Since BD patients often had clinical symptoms of anxiety, a light-dark box (LDB) test was conducted to observe anxiety-like behaviors in the Syt7 KO mice.
as §4, §2

WT mice [8] = assay: light-dark box (LDB) test, WT mice; details: 30 mg/kg intraperitoneal
Method: as §5, §4, §2

Structure (SMILES): O=C([O-])[O-].[Li+].[Li+] [Li2CO3]
- immobility time in FST (Syt7 KO mice [1]): no effect
- immobility time in FST (WT mice [2]): no effect
- escape numbers in LH test (Syt7 KO mice [3]): increased escape numbers
- escape numbers in LH test (WT mice [4]): increased escape numbers
- sucrose preference (SPT) (Syt7 KO mice [5]): decreased sucrose preference
- sucrose preference (SPT) (WT mice [6]): decreased sucrose preference
- time spent in the light compartment in the LDB test (Syt7 KO mice [7]): reducing the time spent in the light compartment
- time spent in the light compartment in the LDB test (WT mice [8]): no effect on WT
